# According to patent publication US20250320206A1, “STAT6 DEGRADERS” (Gilead Sciences, Inc., priority 2024, published 2025):
# Target: T1, STAT6 (Homo sapiens, UniProt P42226)
# T1 construct: These cells express endogenous STAT6; host or cells: HeLa LgBiT clone 4.14
# T1 sequence (P42226 1-847): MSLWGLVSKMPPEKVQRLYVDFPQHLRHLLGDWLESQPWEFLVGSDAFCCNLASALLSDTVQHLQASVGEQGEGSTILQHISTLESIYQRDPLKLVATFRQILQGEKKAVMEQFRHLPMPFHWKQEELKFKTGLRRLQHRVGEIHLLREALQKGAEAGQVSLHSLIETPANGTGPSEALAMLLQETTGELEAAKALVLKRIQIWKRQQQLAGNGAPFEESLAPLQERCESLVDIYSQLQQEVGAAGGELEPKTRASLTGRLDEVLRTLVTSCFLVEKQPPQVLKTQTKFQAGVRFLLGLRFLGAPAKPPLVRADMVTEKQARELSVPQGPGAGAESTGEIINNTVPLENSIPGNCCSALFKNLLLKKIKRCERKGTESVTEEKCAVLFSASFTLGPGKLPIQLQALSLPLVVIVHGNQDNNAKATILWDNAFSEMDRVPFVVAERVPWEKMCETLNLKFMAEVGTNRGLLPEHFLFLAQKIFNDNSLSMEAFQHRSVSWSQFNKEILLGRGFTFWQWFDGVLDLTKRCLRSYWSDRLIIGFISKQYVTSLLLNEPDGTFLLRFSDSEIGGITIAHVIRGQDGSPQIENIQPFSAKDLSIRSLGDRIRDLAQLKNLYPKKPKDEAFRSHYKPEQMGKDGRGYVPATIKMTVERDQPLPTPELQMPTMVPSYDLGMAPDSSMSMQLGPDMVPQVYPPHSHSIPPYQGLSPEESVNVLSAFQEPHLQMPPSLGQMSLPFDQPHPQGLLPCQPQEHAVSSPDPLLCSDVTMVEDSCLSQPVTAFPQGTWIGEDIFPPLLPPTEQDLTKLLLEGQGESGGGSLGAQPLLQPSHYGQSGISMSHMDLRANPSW
# Assay: Stat6 Degrader Assay (HiBiT based, HeLa LgBiT clone 4.14)
# Type: cell-based
# Conditions: HeLa LgBiT clone 4.14 HiBiT-STAT6, 4-24 h incubation; read-out: STAT6 degradation Emax
# Protocol: This was a HiBit based assay. A HeLa cell line stably transfected with a small protein, LgBit (Large Bit) was obtained from Promega. These cells express endogenous STAT6. A small 11 amino acid gene sequence (HiBiT) was inserted in the STAT6 gene using CRISPR technology. Once STAT6 protein is expressed in the cells, the HiBiT sequence will bind the LgBit in the cells resulting in a functional NanoBiT protein, giving a luminescent tag to STAT6, see FIG. 2.
# Single cell clones were prepared and the clone 4.14 was selected for the assay based on that clone showing high luminescence, high STAT6 phosphorylation upon stimulation with IL-4, and inhibition of luminescence when cells were treated with STAT6 siRNA.
# HeLa LgBiT clone 4.14 cells were suspended in DMEM with 10% FCS, 1% Pen/Strep, Na-pyrovate and Hygromycin B, at a concentration of 1.25*105 cells pr mL. 5000 cells were added pr well of a 384 well plate and 20 nL of compound was added by Echo® liquid handler. NN6394A (terfenadine, a toxic compound) was added to control wells at 50 μM concentration to establish the assay window. In these wells the cells are dead which equals 100% degradation of STAT6.
# After 4-24 h of incubation at 37° C. under 5% CO2/95% air, 5 μL substrate (Nano-GLO®) was added to the wells and the plates were centrifuged and incubated for 0.5 h.
# The luminescence in the wells as a measure of non-degraded STAT6 was measured in a plate reader (BMG Pherastar FSX).
# The dose-response curves for Examples 3u208, 3u246, 3u118, 3u119, 3u120, and 3u74 are shown in FIG. 1 (where percent degradation is plotted vs. test compound concentration in M on a log-scale).
row,Emax,SMILES
1,70 to 80%,"CNc1cc(=O)n(-c2ccnc3c2cc(CN2CCC(c4c(F)cc(C(=O)N5CCC(CCn6cc(-c7ccc8c(c7)n(C)c(=O)n8C7CCC(=O)NC7=O)nn6)CC5)cc4F)CC2)n3C)cc1F (centres unmarked) [Example 3u263, 3-(5-(1-(2-(1-(3,5-difluoro-4-(1-((4-(5-fluoro-4-(methylamino)-2-oxopyridin-1 (2H)-yl)-1-methyl-1H-pyrrolo[2,3-b]pyridin-2-yl)methyl)piperidin-4-yl)benzoyl)piperidin-4-yl)ethyl)-1H-1,2,3-triazol-4-yl)-3-methyl-2-oxo-2,3-dihydro-1H-benzo[d]imidazol-1-yl)piperidine-2,6-dione]"
2,< 20%,"CNc1cc(=O)n(-c2ccnc3c2cc([C@H](C)N2CC=C(c4c(C)cc(C(=O)N5CCC(CN6CCN(c7ccc8c(c7)n(C7CCC(=O)NC7=O)c(=O)n8C)CC6)CC5)cc4F)CC2)n3C)cc1F (stereo partly drawn) [Example 3u272, 3-(6-(4-((1-(3-fluoro-4-(1-((S)-1-(4-(5-fluoro-4-(methylamino)-2-oxopyridin-1 (2H)-yl)-1-methyl-1H-pyrrolo[2,3-b]pyridin-2-yl)ethyl)-1,2,3,6-tetrahydropyridin-4-yl)-5-methylbenzoyl)piperidin-4-yl)methyl)piperazin-1-yl)-3-methyl-2-oxo-2,3-dihydro-1H-benzo[d]imidazol-1-yl)piperidine-2,6-dione]"
3,50 to 60%,"Cc1cc(C(=O)N2CCC(CN3CCC(Cc4ccc5c(c4)n(C)c(=O)n5C4CCC(=O)NC4=O)CC3)CC2)cc(F)c1C1CCN(Cc2cc3c(-n4ccc(N)cc4=O)ccnc3n2C)CC1 (centres unmarked) [Example 3u267, 3-(5-((1-((1-(4-(1-((4-(4-amino-2-oxopyridin-1 (2H)-yl)-1-methyl-1H-pyrrolo[2,3-b]pyridin-2-yl)methyl)piperidin-4-yl)-3-fluoro-5-methylbenzoyl)piperidin-4-yl)methyl)piperidin-4-yl)methyl)-3-methyl-2-oxo-2,3-dihydro-1H-benzo[d]imidazol-1-yl)piperidine-2,6-dione]"

# Same assay, conditions: HeLa LgBiT clone 4.14 HiBiT-STAT6, 4-24 h incubation; values given for compounds with >80% Emax; geometric mean; read-out: STAT6 degradation DC50
row,SMILES,DC50
1,"Cc1cc(C(=O)N2CCC(CN3CCN(Cc4cc5c(cc4F)n([C@@H]4CCC(=O)NC4=O)c(=O)n5C4CC4)CC3)CC2)cc(F)c1C1=CCN([C@@H](C)c2cc3c(-n4ccc5c(c4=O)CCN5)ccnc3n2C)CC1 (single isomer, unassigned) [Example 3u148]",2700 pM
2,"CNc1cc(=O)n(-c2ccnc3c2cc([C@H](C)N2CC=C(c4c(C)cc(C(=O)N5CCC(F)(CC6CCN(c7ccc8c(c7)C7(CC7)C(=O)N8C7CCC(=O)NC7=O)CC6)CC5)cc4F)CC2)n3C)cc1F (stereo partly drawn) [Example 3u21, 3-(5′-(4-((4-fluoro-1-(3-fluoro-4-(1-((S)-1-(4-(5-fluoro-4-(methylamino)-2-oxopyridin-1 (2H)-yl)-1-methyl-1H-pyrrolo[2,3-b]pyridin-2-yl)ethyl)-1,2,3,6-tetrahydropyridin-4-yl)-5-methylbenzoyl)piperidin-4-yl)methyl)piperidin-1-yl)-2′-oxospiro[cyclopropane-1,3′-indolin]-1′-yl)-piperidine-2,6-dione]",400 pM
3,"CNc1ccn(-c2ccnc3c2cc([C@H](C)N2CCC(c4ccc(C(=O)N5CCC(CN6CCN(Cc7ccc8c(c7)C7(CC7)C(=O)N8[C@@H]7CCC(=O)NC7=O)C[C@@H]6C)CC5)cc4)CC2)n3C)c(=O)c1 (single isomer, unassigned) [Example 3u7]",600 pM
4,"Cc1cc(C(=O)N2CCC(CN3CCN(Cc4cc5c(cc4F)n(C4CCC(=O)NC4=O)c(=O)n5C4CC4)C[C@@H]3C)CC2)cc(F)c1C1=CCN([C@@H](C)c2cc3c(-n4ccc5c(c4=O)CCN5)ccnc3n2C)CC1 (stereo partly drawn) [Example 3u131, 3-(3-cyclopropyl-6-fluoro-5-(((S)-4-((1-(3-fluoro-5-methyl-4-(1-((S)-1-(1-methyl-4-(4-oxo-1,2,3,4-tetrahydro-5H-pyrrolo[3,2-c]pyridin-5-yl)-1H-pyrrolo[2,3-b]pyridin-2-yl)ethyl)-1,2,3,6-tetrahydropyridin-4-yl)benzoyl)piperidin-4-yl)methyl)-3-methylpiperazin-1-yl)methyl)-2-oxo-2,3-dihydro-1H-benzo[d]imidazol-1-yl)piperidine-2,6-dione]",800 pM
5,"Cc1cc(C(=O)N2CCC(CN3CCN(Cc4cc5c(cc4F)n([C@H]4CCC(=O)NC4=O)c(=O)n5C4CC4)C[C@@H]3C)CC2)cc(F)c1C1=CCN([C@@H](C)c2cc3c(-n4ccc5c(c4=O)CCN5)ccnc3n2C)CC1 (single isomer, unassigned) [Example 3u132]",500 pM
6,"Cc1cc(C(=O)N2CCC(CN3CCN(Cc4ccc5c(c4)n(C)c(=O)n5[C@H]4CCC(=O)NC4=O)C[C@@H]3C)CC2)cc(F)c1C1CCN(Cc2cc3c(-n4ccc5c(c4=O)CCN5)ccnc3n2C)CC1 (single isomer, unassigned) [Example 3u41]",6000 pM

# Now from value to molecule:
row,DC50,SMILES
1,2100 pM,"CNc1ccn(-c2ccnc3c2cc([C@H](C)N2CC=C(c4c(C)cc(C(=O)N5CCC(CN6CCN(Cc7cc8c(cc7F)n([C@@H]7CCC(=O)NC7=O)c(=O)n8C7CC7)C[C@@H]6C)CC5)cc4F)CC2)n3C)c(=O)c1 (single isomer, unassigned) [Example 3u168]"
2,24100 pM,"CNc1ccn(-c2ccnc3c2cc(CN2CCC(c4c(C)cc(C(=O)N5CCC(CN6CCN(Cc7ccc8c(c7)n(C)c(=O)n8C7CCC(=O)NC7=O)CC6)CC5)cc4F)CC2)n3C)c(=O)c1 (centres unmarked) [Example 3u158, 3-(5-((4-((1-(3-fluoro-5-methyl-4-(1-((1-methyl-4-(4-(methylamino)-2-oxopyridin-1 (2H)-yl)-1H-pyrrolo[2,3-b]pyridin-2-yl)methyl)piperidin-4-yl)benzoyl)piperidin-4-yl)methyl)-piperazin-1-yl)methyl)-3-methyl-2-oxo-2,3-dihydro-1H-benzo[d]imidazol-1-yl)piperidine-2,6-dione]"
3,400 pM,"CNc1ccn(-c2ccnc3c2cc([C@H](C)N2CC=C(c4c(C)cc(C(=O)N(C)C5CCC(C6CCN(Cc7ccc8c(c7)n(C)c(=O)n8C7CCC(=O)NC7=O)CC6)CC5)cc4F)CC2)n3C)c(=O)c1 (stereo partly drawn) [Example 3u252, N-(4-(1-((1-(2,6-dioxopiperidin-3-yl)-3-methyl-2-oxo-2,3-dihydro-1H-benzo[d]-imidazol-5-yl)methyl)piperidin-4-yl)cyclohexyl)-3-fluoro-N,5-dimethyl-4-(1-((S)-1-(1-methyl-4-(4-(methylamino)-2-oxopyridin-1 (2H)-yl)-1H-pyrrolo[2,3-b]pyridin-2-yl)ethyl)-1,2,3,6-tetrahydropyridin-4-yl)benzamide]"
4,400 pM,"CNc1ccn(-c2ccnc3c2cc([C@H](C)N2CC=C(c4c(C)cc(C(=O)N5CCn6nc(CN7CCN(c8ccc9c(c8)n(C)c(=O)n9C8CCC(=O)NC8=O)CC7)cc6C5)cc4F)CC2)n3C)c(=O)c1 (stereo partly drawn) [Example 3u277, 3-(5-(4-((5-(3-fluoro-5-methyl-4-(1-((S)-1-(1-methyl-4-(4-(methylamino)-2-oxopyridin-1 (2H)-yl)-1H-pyrrolo[2,3-b]pyridin-2-yl)ethyl)-1,2,3,6-tetrahydropyridin-4-yl)benzoyl)-4,5,6,7-tetrahydropyrazolo[1,5-a]pyrazin-2-yl)methyl)piperazin-1-yl)-3-methyl-2-oxo-2,3-dihydro-1H-benzo[d]imidazol-1-yl)piperidine-2,6-dione]"
5,5900 pM,"CNc1ccn(-c2ccnc3c2cc(CN2CCC(c4c(F)cc(C(=O)N5CCC(CN6CCN(C(=O)c7ccc8c(c7)n(C)c(=O)n8C7CCC(=O)NC7=O)CC6)CC5)cc4F)CC2)n3C)c(=O)c1 (centres unmarked) [Example 3u264, 3-(5-(4-((1-(3,5-difluoro-4-(1-((1-methyl-4-(4-(methylamino)-2-oxopyridin-1 (2H)-yl)-1H-pyrrolo[2,3-b]pyridin-2-yl)methyl)piperidin-4-yl)benzoyl)piperidin-4-yl)methyl)piperazine-1-carbonyl)-3-methyl-2-oxo-2,3-dihydro-1H-benzo[d]imidazol-1-yl)piperidine-2,6-dione]"
